Source: patent US9539260B2, “Dihydro-benzo-oxazine and dihydro-pyrido-oxazine derivatives” (Novartis AG, priority 2012, dated 2017)
pIC50: −log10 of the molar value.

What was measured:
PI3K delta = PI3K delta (Homo sapiens (Human), UniProt O00329); assay: Enzymatic PI3K delta isoform inhibition (lipid kinase activity, Kinase-Glo luminescence); assay type: biochemical; details: Enzymatic assay
Summary of the method: (§1)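 IC50s derive from 4-parameter logistic fits of % inhibition across 8 concentrations (usually 10 to 0.003 μM). Lipid kinase reaction: PI3K (10 nM) plus phosphatidylinositol (5 μg/mL) started with 2 μM ATP, stopped near 50% ATP depletion; leftover ATP quantified by Kinase-Glo luminescence.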

PI3K alpha = PI3K alpha (Homo sapiens (Human), UniProt P42336); assay: Enzymatic PI3K alpha isoform inhibition (lipid kinase activity, Kinase-Glo luminescence); assay type: biochemical; details: Enzymatic assay
Chain of PI3K alpha (P42336 other isoform, or with tags, fused parts or gaps): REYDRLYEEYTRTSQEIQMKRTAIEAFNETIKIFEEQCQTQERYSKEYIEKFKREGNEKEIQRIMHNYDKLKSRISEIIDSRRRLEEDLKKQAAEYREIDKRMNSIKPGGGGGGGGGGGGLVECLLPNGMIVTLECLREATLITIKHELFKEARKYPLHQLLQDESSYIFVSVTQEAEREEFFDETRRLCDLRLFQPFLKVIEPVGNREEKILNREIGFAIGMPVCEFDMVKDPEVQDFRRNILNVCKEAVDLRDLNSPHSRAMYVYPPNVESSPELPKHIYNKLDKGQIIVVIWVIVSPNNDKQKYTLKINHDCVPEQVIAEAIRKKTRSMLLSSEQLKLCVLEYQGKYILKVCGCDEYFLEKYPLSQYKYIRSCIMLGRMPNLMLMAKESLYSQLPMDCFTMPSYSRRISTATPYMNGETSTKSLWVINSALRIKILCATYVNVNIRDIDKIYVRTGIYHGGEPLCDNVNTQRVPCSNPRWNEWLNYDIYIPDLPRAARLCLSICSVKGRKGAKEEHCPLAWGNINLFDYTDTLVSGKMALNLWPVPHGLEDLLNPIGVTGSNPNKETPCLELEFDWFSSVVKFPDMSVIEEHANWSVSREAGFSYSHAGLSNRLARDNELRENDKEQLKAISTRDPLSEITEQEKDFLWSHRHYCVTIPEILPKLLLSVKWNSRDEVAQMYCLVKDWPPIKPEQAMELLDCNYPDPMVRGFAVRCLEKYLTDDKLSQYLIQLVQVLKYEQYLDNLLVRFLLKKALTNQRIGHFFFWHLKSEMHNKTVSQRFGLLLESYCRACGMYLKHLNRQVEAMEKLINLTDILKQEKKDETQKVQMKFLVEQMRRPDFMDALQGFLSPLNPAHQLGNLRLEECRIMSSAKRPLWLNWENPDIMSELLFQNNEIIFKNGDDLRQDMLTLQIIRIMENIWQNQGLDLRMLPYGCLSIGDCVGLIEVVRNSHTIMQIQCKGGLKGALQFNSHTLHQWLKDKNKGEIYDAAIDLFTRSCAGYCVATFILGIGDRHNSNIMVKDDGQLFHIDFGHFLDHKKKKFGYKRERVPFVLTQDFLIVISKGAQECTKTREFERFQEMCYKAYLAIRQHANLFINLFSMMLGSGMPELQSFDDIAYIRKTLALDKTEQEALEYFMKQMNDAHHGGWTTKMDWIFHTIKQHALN
Summary of the method: as §1

Chain of PI3K delta (O00329 other isoform, or with tags, fused parts or gaps linker GGGGGG): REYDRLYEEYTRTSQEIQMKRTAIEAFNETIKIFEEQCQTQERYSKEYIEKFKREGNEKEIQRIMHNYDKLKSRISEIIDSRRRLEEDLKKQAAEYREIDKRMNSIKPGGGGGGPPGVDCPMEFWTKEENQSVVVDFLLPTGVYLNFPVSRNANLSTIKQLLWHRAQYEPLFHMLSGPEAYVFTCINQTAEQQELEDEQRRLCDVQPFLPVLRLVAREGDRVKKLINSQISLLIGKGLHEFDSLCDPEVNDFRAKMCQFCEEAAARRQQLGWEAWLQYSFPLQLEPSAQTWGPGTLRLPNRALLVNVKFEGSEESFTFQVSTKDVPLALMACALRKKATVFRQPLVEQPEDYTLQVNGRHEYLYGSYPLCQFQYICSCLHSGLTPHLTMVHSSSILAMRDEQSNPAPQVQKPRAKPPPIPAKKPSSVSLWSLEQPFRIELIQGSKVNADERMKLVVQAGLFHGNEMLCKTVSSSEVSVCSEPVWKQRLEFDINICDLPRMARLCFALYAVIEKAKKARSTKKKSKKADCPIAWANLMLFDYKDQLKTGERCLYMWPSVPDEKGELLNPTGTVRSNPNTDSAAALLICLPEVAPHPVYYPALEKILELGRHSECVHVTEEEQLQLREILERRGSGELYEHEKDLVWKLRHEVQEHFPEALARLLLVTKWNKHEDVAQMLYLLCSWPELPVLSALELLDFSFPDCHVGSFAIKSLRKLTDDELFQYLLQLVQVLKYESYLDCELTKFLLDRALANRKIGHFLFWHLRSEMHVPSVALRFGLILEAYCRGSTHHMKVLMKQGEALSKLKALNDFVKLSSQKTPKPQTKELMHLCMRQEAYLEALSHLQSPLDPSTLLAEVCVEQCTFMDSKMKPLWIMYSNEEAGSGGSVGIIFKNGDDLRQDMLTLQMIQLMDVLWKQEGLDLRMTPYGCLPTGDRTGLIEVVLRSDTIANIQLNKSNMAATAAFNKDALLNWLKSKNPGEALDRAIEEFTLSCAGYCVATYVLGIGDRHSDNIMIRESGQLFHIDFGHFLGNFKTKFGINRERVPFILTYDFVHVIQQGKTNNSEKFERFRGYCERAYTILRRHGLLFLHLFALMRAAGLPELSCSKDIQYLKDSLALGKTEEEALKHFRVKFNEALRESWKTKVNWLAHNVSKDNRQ

Structure (SMILES) | pIC50 (PI3K delta) | pIC50 (PI3K alpha)
COc1ncc(N2CCOc3ccc(O[C@H]4CCN(C(=O)c5cn(C)cn5)C4)cc32)cc1C [Example B89, {(S)-3-[4-(6-Methoxy-5-methyl-pyridin-3-yl)-3,4-dihydro-2H-benzo[1,4]oxazin-6-yloxy]-pyrrolidin-1-yl}-(1-methyl-1H-imidazol-4-yl)-methanone] | 8.05 | 6.88
COc1ncc(N2CCOc3ccc(O[C@H]4CCN(C(=O)c5ccc(=O)[nH]c5)C4)cc32)cc1C [Example B92, 5-{(S)-3-[4-(6-Methoxy-5-methyl-pyridin-3-yl)-3,4-dihydro-2H-benzo[1,4]oxazin-6-yloxy]-pyrrolidine-1-carbonyl}-1H-pyridin-2-one] | 8.10 | 6.46
COc1ncc(N2CCOc3ccc(O[C@H]4CCN(C(=O)C5CCS(=O)(=O)CC5)C4)cc32)cc1C [Example B93, (1,1-Dioxo-hexahydro-1lambda*6*-thiopyran-4-yl)-{(S)-3-[4-(6-methoxy-5-methyl-pyridin-3-yl)-3,4-dihydro-2H-benzo[1,4]oxazin-6-yloxy]-pyrrolidin-1-yl}-methanone] | 8.40 | 6.28
COc1ncc(N2CCOc3ccc(O[C@H]4CCN(C(=O)C5CCOC5)C4)cc32)cc1F (stereo partly drawn) [Example B98, {(S)-3-[4-(5-Fluoro-6-methoxy-pyridin-3-yl)-3,4-dihydro-2H-benzo[1,4]oxazin-6-yloxy]-pyrrolidin-1-yl}-(tetrahydro-furan-3-yl)-methanone] | 7.89 | 6.04
COCC(=O)N1CC[C@H](Oc2ccc3c(c2)N(c2cnc(OC)c(F)c2)CCO3)C1 [Example B99, 1-{(S)-3-[4-(5-Fluoro-6-methoxy-pyridin-3-yl)-3,4-dihydro-2H-benzo[1,4]oxazin-6-yloxy]-pyrrolidin-1-yl}-2-methoxy-ethanone] | 7.24 | 6.52

Continued by rising pIC50 (PI3K delta), values first:

pIC50 (PI3K delta) | pIC50 (PI3K alpha) | Structure (SMILES)
6.93 | < 5.04 | CCC(=O)N1CC[C@H](Oc2ccc3c(c2)N(c2ccc(S(=O)(=O)CC)nc2)CCO3)C1 [Example B96, 1-{(S)-3-[4-(6-Ethanesulfonyl-pyridin-3-yl)-3,4-dihydro-2H-benzo[1,4]oxazin-6-yloxy]-pyrrolidin-1-yl}-propan-1-one]
7.67 | 6.32 | CCC(=O)N1CC[C@H](Oc2ccc3c(c2)N(c2cnc(S(C)(=O)=O)c(C)c2)CCO3)C1 [Example B97, 1-{(S)-3-[4-(6-Methanesulfonyl-5-methyl-pyridin-3-yl)-3,4-dihydro-2H-benzo[1,4]oxazin-6-yloxy]-pyrrolidin-1-yl}-propan-1-one]
7.92 | 6.45 | COc1ncc(N2CCOc3ccc(O[C@H]4CCN(C(=O)c5cc[nH]c(=O)c5)C4)cc32)cc1C [Example B91, 4-{(S)-3-[4-(6-Methoxy-5-methyl-pyridin-3-yl)-3,4-dihydro-2H-benzo[1,4]oxazin-6-yloxy]-pyrrolidine-1-carbonyl}-1H-pyridin-2-one]
7.96 | 5.84 | COc1ncc(N2CCOc3ccc(O[C@H]4CCN(C(=O)C5CCN(C(C)=O)CC5)C4)cc32)cc1C [Example B90, 1-(4-{(S)-3-[4-(6-Methoxy-5-methyl-pyridin-3-yl)-3,4-dihydro-2H-benzo[1,4]oxazin-6-yloxy]-pyrrolidine-1-carbonyl}-piperidin-1-yl)-ethanone]
8.05 | 6.36 | COc1ncc(N2CCOc3ccc(O[C@H]4CCN(C(=O)c5ccc(=O)n(C)c5)C4)cc32)cc1C [Example B95, 5-{(S)-3-[4-(6-Methoxy-5-methyl-pyridin-3-yl)-3,4-dihydro-2H-benzo[1,4]oxazin-6-yloxy]-pyrrolidine-1-carbonyl}-1-methyl-1H-pyridin-2-one]
8.30 | 6.38 | COc1ncc(N2CCOc3ccc(O[C@H]4CCN(C(=O)C5CCOC5)C4)cc32)cc1C (stereo partly drawn) [Example B94, {(S)-3-[4-(6-Methoxy-5-methyl-pyridin-3-yl)-3,4-dihydro-2H-benzo[1,4]oxazin-6-yloxy]-pyrrolidin-1-yl}-(tetrahydro-furan-3-yl)-methanone]
